Format in all cases: ADME
The target of series [1] is T1, Cytochrome P450 3A4 (Homo sapiens, UniProt P08684). Nature of the series: Activity of human recombinant CYP3A4 assessed as conversion of testosterone to 6-beta-hydroxytestesterone at 25 uM after 60 mins in presence of 25 uM epipodophyllotoxin. The conditions noted are these: recombinant enzyme, 1 h.
Series [2] addresses T1, Cytochrome P450 3A4. Nature of the series: Ratio of Vmax to Km for human recombinant CYP3A4. Conditions: recombinant enzyme.
Series [3] deals with T1, Cytochrome P450 3A4. Nature of the series: Activity of human recombinant CYP3A4 co-expressed in Escherichia coli with human p450 NADPH reductase assessed as conversion of deoxypodophyllotoxin to epipodophyllotoxin. Conditions: recombinant enzyme.
In series [4] the target is T1, Cytochrome P450 3A4. Nature of the series: Activity of human recombinant CYP3A4 assessed as conversion of testosterone to 6-beta-hydroxytestesterone at 25 uM after 60 mins in presence of 25 uM Miconazole. The conditions noted are these: recombinant enzyme, 1 h.

T1 sequence (P08684 whole entry): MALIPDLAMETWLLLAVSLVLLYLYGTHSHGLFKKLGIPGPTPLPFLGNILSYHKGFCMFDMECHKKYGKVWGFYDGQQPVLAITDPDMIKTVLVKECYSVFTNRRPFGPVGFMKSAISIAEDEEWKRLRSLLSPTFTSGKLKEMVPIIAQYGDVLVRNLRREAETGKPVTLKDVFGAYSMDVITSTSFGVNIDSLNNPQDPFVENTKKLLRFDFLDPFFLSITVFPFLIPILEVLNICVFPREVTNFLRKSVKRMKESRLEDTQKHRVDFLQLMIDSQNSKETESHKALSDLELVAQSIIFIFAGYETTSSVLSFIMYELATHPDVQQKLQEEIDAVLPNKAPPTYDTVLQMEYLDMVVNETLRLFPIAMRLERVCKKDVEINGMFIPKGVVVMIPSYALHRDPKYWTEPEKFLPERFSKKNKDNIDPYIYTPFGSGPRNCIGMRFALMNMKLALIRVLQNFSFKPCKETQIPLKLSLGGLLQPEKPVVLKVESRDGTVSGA

In general, Km refers to the concentration of substrate that gives half-maximal velocity. Usually Vmax stands for the rate approached at saturating substrate. As to `C[C@]12CC[C@H]3[C@@H](CCC4=CC(=O)CC[C@@]43C)[C@@H]1CC[C@@H]2O` [TESTOSTERONE], the “inhibition (INH)” value on Cytochrome P450 3A4 [1] amounted to 11.46%. The Vmax/Km on Cytochrome P450 3A4 [2] was 0.15 nM⁻¹ min⁻¹. Also, on Cytochrome P450 3A4 [3], the Michaelis-Menten constant (Km) is 20.5 µM and the Vmax was 30.3 nmol/min. Besides, the “inhibition (INH)” value on Cytochrome P450 3A4 [4] amounted to 4.38%.
